# Experimental data reported in US8735424B2 (Novartis AG, priority 2008, dated 2014).
# What was measured:
# [1] = target: PIM1 (Homo sapiens, UniProt P11309); assay: Pim1 ATP depletion assay; format: biochemical; details: 20 μM ATP, 2.5 nM PIM1
# Description: The activity of PIM1 is measured using a luciferase-luciferin based ATP detection reagent to quantify ATP depletion resulting from kinase-catalyzed phosphoryl transfer to a peptide substrate. Compounds to be tested are dissolved in 100% DMSO and directly distributed into white 384-well plates at 0.5 μl per well. To start the reaction, 10 μl of 5 nM Pim1 kinase and 80 μM BAD peptide (RSRHSSYPAGT-OH) in assay buffer (50 mM HEPES pH 7.5, 5 mM MgCl2, 1 mM DTT, 0.05% BSA) is added into each well. After 15 minutes, 10 μl of 40 μM ATP in assay buffer is added. Final assay concentrations are 2.5 nM PIM1, 20 μM ATP, 40 μM BAD peptide and 2.5% DMSO. The reaction is performed until approximately 50% of the ATP is depleted, then stopped with the addition of 20 μl KinaseGlo Plus (Promega Corporation) solution. The stopped reaction is incubated for 10 minutes and the remaining ATP detected via luminescence on the Victor2 (Perkin Elmer). […] IC50, the half maximal inhibitory concentration, represents the concentration of a test compound that is required for 50% inhibition of its target in vitro.
# [2] = target: PIM2 (Homo sapiens, UniProt Q9P1W9); assay: Pim2 ATP depletion assay; format: biochemical; details: 4 μM ATP, 5 nM PIM2
# Sequence of PIM2 (Q9P1W9 whole entry): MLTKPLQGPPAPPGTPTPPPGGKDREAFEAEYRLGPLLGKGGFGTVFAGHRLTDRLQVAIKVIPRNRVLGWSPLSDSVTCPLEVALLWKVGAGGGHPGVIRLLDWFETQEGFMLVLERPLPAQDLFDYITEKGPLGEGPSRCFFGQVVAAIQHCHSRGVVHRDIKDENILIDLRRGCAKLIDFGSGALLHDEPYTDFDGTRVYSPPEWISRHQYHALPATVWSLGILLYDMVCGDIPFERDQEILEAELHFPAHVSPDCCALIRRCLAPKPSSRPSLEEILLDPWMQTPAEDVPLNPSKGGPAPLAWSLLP
# Description: The activity of PIM2 is measured using a luciferase-luciferin based ATP detection reagent to quantify ATP depletion resulting from kinase-catalyzed phosphoryl transfer to a peptide substrate. Compounds to be tested are dissolved in 100% DMSO and directly distributed into white 384-well plates at 0.5 μl per well. To start the reaction, 10 μl of 10 nM Pim2 kinase and 20 μM BAD peptide (RSRHSSYPAGT-OH) in assay buffer (50 mM HEPES pH 7.5, 5 mM MgCl2, 1 mM DTT, 0.05% BSA) is added into each well. After 15 minutes, 10 μl of 8 μM ATP in assay buffer is added. Final assay concentrations are 5 nM PIM2, 4 μM ATP, 10 μM BAD peptide and 2.5% DMSO. The reaction is performed until approximately 50% of the ATP is depleted, then stopped with the addition of 20 μl KinaseGlo Plus (Promega Corporation) solution. The stopped reaction is incubated for 10 minutes and the remaining ATP detected via luminescence on the Victor2 (Perkin Elmer).
# [3] = target: PIM3 (Homo sapiens, UniProt Q86V86); assay: Pim3 ATP depletion assay; format: biochemical; details: 40 μM ATP
# Description: The activity of PIM3 is measured using a luciferase-luciferin based ATP detection reagent to quantify ATP depletion resulting from kinase-catalyzed phosphoryl transfer to a peptide substrate. Compounds to be tested are dissolved in 100% DMSO and directly distributed into white 384-well plates at 0.5 μl per well. To start the reaction, 10 μl of 10 nM Pim3 kinase and 200 μM BAD peptide (RSRHSSYPAGT-OH) in assay buffer (50 mM HEPES pH 7.5, 5 mM MgCl2, 1 mM DTT, 0.05% BSA) is added into each well. After 15 minutes, 10 μl of 80 μM ATP in assay buffer is added. Final assay concentrations are 5 nM PIM1, 40 μM ATP, 100 μM BAD peptide and 2.5% DMSO. The reaction is performed until approximately 50% of the ATP is depleted, then stopped by the addition of 20 μl KinaseGlo Plus (Promega Corporation) solution. The stopped reaction is incubated for 10 minutes and the remaining ATP detected via luminescence on the Victor2 (Perkin Elmer).
# [4] = tested on: KMS11 cells; assay: Cell proliferation assay (CellTiter-Glo); format: cell-based; details: KMS-11, 72 h; KMS11 human myeloma cell line, 3 days
# Description: KMS11 (human myeloma cell line), were cultured in IMDM supplemented with 10% FBS, sodium pyruvate and antibiotics. Cells were plated in the same medium at a density of 2000 cells per well into 96 well tissue culture plates, with outside wells vacant, on the day of assay. MM1.s (human myeloma cell line), were cultured in RPMI1640 supplemented with 10% FBS, sodium pyruvate and antibiotics. Cells were plated in the same medium at a density of 5000 cells per well into 96 well tissue culture plates, with outside wells vacant, on the day of assay.
# Test compounds supplied in DMSO were diluted into DMSO at 500 times the desired final concentrations before dilution into culture media to 2 times final concentrations. Equal volumes of 2× compounds were added to the cells in 96 well plates and incubated at 37° C. for 3 days.
# After 3 days plates were equilibrated to room temperature and equal volume of CellTiter-Glow Reagent (Promega) was added to the culture wells. The plates were agitated briefly and luminescent signal was measured with luminometer. The percent inhibition of the signal seen in cells treated with DMSO alone vs. cells treated with control compound was calculated and used to determine EC50 values (i.e., the concentration of a test compound that is required to obtain 50% of the maximum effect in the cells) for tested compounds, as shown in Example 41.
# Sequence of PIM1 (P11309 whole entry): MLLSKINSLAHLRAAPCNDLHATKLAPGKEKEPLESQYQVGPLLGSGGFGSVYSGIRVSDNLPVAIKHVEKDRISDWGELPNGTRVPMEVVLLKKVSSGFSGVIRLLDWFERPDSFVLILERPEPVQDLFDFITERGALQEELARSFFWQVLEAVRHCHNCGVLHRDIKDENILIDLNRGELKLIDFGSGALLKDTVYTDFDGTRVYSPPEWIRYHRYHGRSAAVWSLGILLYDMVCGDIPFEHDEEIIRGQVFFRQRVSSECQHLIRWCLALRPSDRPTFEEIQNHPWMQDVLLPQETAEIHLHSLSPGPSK
SMILES,IC50 [1],IC50 [2],IC50 [3],EC50 [4]
"Nc1ccc(-c2ccccc2)nc1-c1cc2c(N3CCC[C@H](N)C3)ccnc2cn1 [Example 20, (S)-2-(4-(3-aminopiperidin-1-yl)-1,7-naphthyridin-6-yl)-6-phenylpyridin-3-amine]",0.003 µM,0.062 µM,0.004 µM,4.2 µM
"Nc1cnc(-c2ccccc2F)nc1-c1cc2c(N3CCC[C@H](N)C3)ccnc2cn1 [Example 6, (S)-4-(4-(3-aminopiperidin-1-yl)-1,7-naphthyridin-6-yl)-2-(2-fluorophenyl)pyrimidin-5-amine]",0.004 µM,0.059 µM,0.003 µM,1.8 µM
"Nc1ccc(-c2cccs2)nc1-c1cc2c(N3CCC[C@H](N)C3)ccnc2cn1 [Example 13, (S)-2-(4-(3-aminopiperidin-1-yl)-1,7-naphthyridin-6-yl)-6-(thiophen-2-yl)pyridin-3-amine]",0.003 µM,0.054 µM,0.004 µM,4.7 µM
"Nc1ccc(-c2nccs2)nc1-c1cc2c(N3CCC[C@H](N)C3)ccnc2cn1 [Example 5, (S)-2-(4-(3-aminopiperidin-1-yl)-1,7-naphthyridin-6-yl)-6-(thiazol-2-yl)pyridin-3-amine]",0.001 µM,0.009 µM,0.004 µM,0.84 µM
"Nc1ccc(-c2nccs2)nc1-c1cc2c(N3CCC[C@H](N)C3)c(F)cnc2cn1 [Example 1, (S)-2-(4-(3-aminopiperidin-1-yl)-3-fluoro-1,7-naphthyridin-6-yl)-6-(thiazol-2-yl)pyridin-3-amine]",0.002 µM,0.04 µM,0.007 µM,0.87 µM

# Second part, led by results:
IC50 [1],IC50 [2],IC50 [3],SMILES,EC50 [4]
0.005 µM,0.024 µM,0.007 µM,"Nc1ccc(-c2c(F)cccc2F)nc1-c1cc2c(N3CCC[C@@H](N)C3)ccnc2cn1 [Example 7, (R)-2-(4-(3-aminopiperidin-1-yl)-1,7-naphthyridin-6-yl)-6-(2,6-difluorophenyl)pyridin-3-amine]",2.8 µM
0.003 µM,0.048 µM,0.013 µM,"CC(C)NC(=O)c1ccc(F)c(-c2ccc(N)c(-c3cc4c(N5CCC[C@H](N)C5)ccnc4cn3)n2)c1 [Example 10, (S)-3-(5-amino-6-(4-(3-aminopiperidin-1-yl)-1,7-naphthyridin-6-yl)pyridin-2-yl)-4-fluoro-N-isopropylbenzamide]",3.9 µM
0.002 µM,0.071 µM,0.004 µM,"Nc1ccc(-c2cccc(F)c2F)nc1-c1cc2c(N3CCC[C@H](N)C3)ccnc2cn1 [Example 18, (S)-2-(4-(3-aminopiperidin-1-yl)-1,7-naphthyridin-6-yl)-6-(2,3-difluorophenyl)pyridin-3-amine]",4.9 µM
0.016 µM,0.081 µM,0.021 µM,"CC(C)NC(=O)c1ccc(F)c(-c2ccc(N)c(-c3cc4c(N5CCC[C@@H](N)C5)ccnc4cn3)n2)c1 [Example 8, (R)-3-(5-amino-6-(4-(3-aminopiperidin-1-yl)-1,7-naphthyridin-6-yl)pyridin-2-yl)-4-fluoro-N-isopropylbenzamide]",4.5 µM
0.002 µM,0.059 µM,0.003 µM,"Nc1ccc(-c2ccccc2F)nc1-c1cc2c(N3CCC[C@H](N)C3)ccnc2cn1 [Example 11, (S)-2-(4-(3-aminopiperidin-1-yl)-1,7-naphthyridin-6-yl)-6-(2-fluorophenyl)pyridin-3-amine]",5.2 µM
0.009 µM,0.074 µM,0.022 µM,"Nc1ccc(-c2cc(C(=O)NC3CCCCC3)ccc2F)nc1-c1cc2c(N3CCC[C@H](N)C3)ccnc2cn1 [Example 15, (S)-3-(5-amino-6-(4-(3-aminopiperidin-1-yl)-1,7-naphthyridin-6-yl)pyridin-2-yl)-N-cyclohexyl-4-fluorobenzamide]",3.1 µM
